Measured values published in article PMC12216189 (Nature Communications, 2025).
Ends that are not written are not given here.

How the values were obtained:
[1] = system: A. baumannii 19606; experiment: Bactericidal assay of kanamycin with/without HNP1, no preincubation; type: cell-based, Acinetobacter baumannii; conditions: 0–100 μg/ml, LB broth, 24 h
[2] = system: A. baumannii 19606; experiment: Biofilm formation assay; type: cell-based, Acinetobacter baumannii; conditions: for Biofilm-enhancing activity of HNP1 mutants (CV staining): HNP1 Ala-scan mutants and analogs, Fig. 6F
[3] = system: Shigella; conditions: sub-lethal concentrations; ref [78]; cited from earlier work
[4] = system: Staphylococcus; conditions: ref [26]; cited from earlier work
[5] = system: S. aureus, P. aeruginosa, and A. baumannii; conditions: various bacteria, including S. aureus, ref [24]–[26]; cited from earlier work
[6] = system: A. baumannii 19606; experiment: Real colony count bactericidal assay in LB broth; type: cell-based, Acinetobacter baumannii; conditions: 4 μM
[7] = target: Fam-A11K-HNP1 (fluorescently labeled synthetic human neutrophil peptide 1) (human); experiment: fluorescence polarisation
[8] = system: drug-resistant bacteria; conditions: ref [84]; cited from earlier work
[9] = system: A. baumannii 19606; experiment: Competitive inhibition by recombinant OmpA of HNP1-promoted biofilm formation; type: cell-based, Acinetobacter baumannii; conditions: 0–2 μM OmpA

NC[C@H]1O[C@H](O[C@H]2[C@H](O)[C@@H](O[C@H]3O[C@H](CO)[C@@H](O)[C@H](N)[C@H]3O)[C@H](N)C[C@@H]2N)[C@H](O)[C@@H](O)[C@@H]1O [Kanamycin]
Kanamycin effect on bacterial growth and survival [1]: dose-dependently inhibited bacterial growth and survival

AFTCHCRR-SCYSTEYSYGTCTVMGINHRFCCL (disulfide) [HD6]
Effect on biofilm formation (CV staining) ([2]; 4 μM, A. baumannii 19606): slightly enhanced it

ATCYCRTGRCATRESLSGVCEISGRLYRLCCR (disulfide (positions not given here)) [HD5]
Shigella infection of epithelial cells and tissues [3]: promotes, at sub-lethal concentrations, Shigella infection | Effect on biofilm formation (CV staining) ([2]; 4 μM, A. baumannii 19606): slightly enhanced it

HBD1: human β-defensin (DHYNCVSSGGQCLYSACPIFTKIQGTCYRGKAKCCK; ends and bridges not checked; cysteine pairing not given here; UniProt P60022 33-68, looked up)
Effect on biofilm formation (CV staining) ([2]; 4 μM, A. baumannii 19606): inactive in promoting biofilm formation

HBD3: human β-defensin 3, cited only (GIINTLQKYYCRVRGGRCAVLSCLPKEEQIGKCSTRGRKCCRRKK; ends and bridges not checked; cysteine pairing not given here; UniProt P81534 23-67, looked up)
Effect on biofilm formation [4]: inhibitory against biofilm formation

I6A: HNP1 Ala-substitution mutant
Biofilm-enhancing activity of HNP1 mutants (CV staining) [2]: significant decrease in biofilm enhancement

I20A/L25A: HNP1 Ala-substitution mutant
Biofilm-enhancing activity of HNP1 mutants (CV staining) [2]: significant decrease in biofilm enhancement

LL37: human cathelicidin (LLGDFFRKSKEKIGKEFKRIVQRIKDFLRNLVPRTES; Antibacterial peptide LL-37; UniProt P49913 134-170, looked up)
Effect on biofilm formation [5]: inhibit biofilm formation by various bacteria | Bacterial killing in LB broth [6]: killing of the bacteria even in the presence of LB broth | Effect on biofilm formation (CV staining) ([2]; 4 μM, A. baumannii 19606): significantly inhibited biofilm formation

OmpA-ΔL1L2 (full-length OmpA with extracellular loops L1 and L2 deleted) (natural protein)
fold decrease of binding against full-length OmpA [7]: 3 fold

R15A: HNP1 Ala-substitution mutant
Biofilm-enhancing activity of HNP1 mutants (CV staining) [2]: significant decrease in biofilm enhancement

T18A: HNP1 Ala-substitution mutant
Biofilm-enhancing activity of HNP1 mutants (CV staining) [2]: significant decrease in biofilm enhancement

TM-ΔL1L2 (transmembrane domain of OmpA with extracellular loops L1 and L2 deleted) (domain or fragment)
fold decrease of binding against the transmembrane domain of OmpA [7]: 3 fold

VCSCRLVFCRRTELRVGNCLIGGVSFTYCCTRV (disulfide (positions not given here)) [HNP4]
Effect on biofilm formation (CV staining) ([2]; 0–32 μM, LB broth, 96-well plate, 24 h, 37 °C): largely inactive | Effect on biofilm formation (CV staining) ([2]; 4 μM, A. baumannii 19606): inactive in promoting biofilm formation

W26A-HNP1: dimerization-debilitating analog
Biofilm-enhancing activity of HNP1 mutants (CV staining) [2]: completely lost their biofilm-enhancing activity

colistin
Potentiation of antibacterial activity of classic antibiotics [8]: potentiate the antibacterial activity of classic antibiotics

B1: full-length recombinant OmpA (outer membrane protein A) of Acinetobacter baumannii ATCC 19606 (natural protein)
chain: GVTVTPLLLGYTFQDSQHNNGGKDGNLTNGPELQDDLFVGAALGIELTPWLGFEAEYNQVKGDVDGASAGAEYKQKQINGNFYVTSDLITKNYDSKIKPYVLLGAGHYKYDFDGVNRGTRGTSEEGTLGNAGVGAFWRLNDALSLRTEARATYNADEEFWNYTALAGLNVVLGGHLKPAAPVVEVAPVEPTPVAPQPQELTEDLNMELRVFFDTNKSNIKDQYKPEIAKVAEKLSEYPNATARIEGHTDNTGPRKLNERLSLARANSVKSALVNEYNVDASRLSTQGFAWDQPIADNKTKEGRAMNRRVFATITGSRTVVVQPGQEAAAPAAAQ
Kd [7]: 500 nM

B2: OmpA: recombinant A. baumannii outer membrane protein A with His tag (protein)
chain: GVTVTPLLLGYTFQDSQHNNGGKDGNLTNGPELQDDLFVGAALGIELTPWLGFEAEYNQVKGDVDGASAGAEYKQKQINGNFYVTSDLITKNYDSKIKPYVLLGAGHYKYDFDGVNRGTRGTSEEGTLGNAGVGAFWRLNDALSLRTEARATYNADEEFWNYTALAGLNVVLGGHLKPAAPVVEVAPVEPTPVAPQPQELTEDLNMELRVFFDTNKSNIKDQYKPEIAKVAEKLSEYPNATARIEGHTDNTGPRKLNERLSLARANSVKSALVNEYNVDASRLSTQGFAWDQPIADNKTKEGRAMNRRVFATITGSRTVVVQPGQEAAAPAAAQ
modifications: left off: His tag, end not stated, state not stated
Effect of recombinant OmpA on HNP1-promoted biofilm formation ([9]; 8 μM HNP1): dose-dependently inhibited biofilm formation promoted by HNP1 | Effect of recombinant OmpA on biofilm formation without HNP1 ([9]; no HNP1): little effect on biofilm formation
